# Data: patent US20070117743A1, “New antitumoral compounds” (priority 2003, published 2007)
# Read-outs that look alike come from different tables or passages of the source. Where a SMILES comes first, the peptide text is derived from it. Bridges are numbered along the chain shown (N, C = ends). [ ]: non-standard residue; d: D form. The star is where a group is joined. d(aIle) = CC[C@H](C)[C@@H](N)C(=O)O; d(aThr) = C[C@@H](O)[C@@H](N)C(=O)O; hCha = N[C@@H](CCC1CCCCC1)C(=O)O; Hexanoyl(5-Me) = CC(C)CCCC(=O)*; Orn = NCCC[C@H](N)C(=O)O; Dhb = C/C=C(\N)C(=O)O; Dha = C=C(N)C(=O)O
# Legend:
# Type in all cases: cell-based, human
# IGROV-1 = assay: SRB colorimetric assay of cell growth and viability, IGROV-1; settings: 48 hours exposure, SRB
# LNCaP = assay: SRB colorimetric assay of cell growth and viability, LNCaP; settings: 48 hours exposure, SRB; for GI50: read-out: GI50 LN-caP; for CC50: read-out: LC50 LN-caP
# SK-BR-3 = assay: SRB colorimetric assay of cell growth and viability, SK-BR-3; settings: 48 hours exposure, SRB
# HeLa = assay: SRB colorimetric assay of cell growth and viability, HeLa; settings: 48 hours exposure; for CC50: read-out: LC50 HELA
# DU-145 = assay: SRB colorimetric assay of cell growth and viability, DU-145; settings: 48 hours exposure, SRB
# LoVo-Dox = assay: SRB colorimetric assay of cell growth and viability, LoVo-Dox; settings: 48 hours exposure; for CC50: read-out: LC50 LOVO-DOX
# Procedure, shortened: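 Optical density at 490 nm of solubilized SRB, from triplicate wells, yields GI, TGI and LC values. Before staining, cells are fixed for 60 minutes at 4° C in cold TCA after a 48-hour exposure.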
# HeLa-APL = assay: SRB colorimetric assay of cell growth and viability, HeLa-APL; settings: 48 hours exposure; for CC50: read-out: LC50 HELA-APL
# HT-29 = assay: SRB colorimetric assay of cell growth and viability, HT-29; settings: 48 hours exposure; for GI50: read-out: GI50 HT-29; for CC50: read-out: LC50 HT-29
# K-562 = assay: SRB colorimetric assay of cell growth and viability, K-562; settings: 48 hours exposure; for CC50: read-out: LC50 K-562
# PANC-1 = assay: SRB colorimetric assay of cell growth and viability, PANC-1; settings: 48 hours exposure; for CC50: read-out: LC50 PANC-1
# A-549 = assay: SRB colorimetric assay of cell growth and viability, A-549; settings: 48 hours exposure; for GI50: read-out: GI50 A-549; for CC50: read-out: LC50 A-549
# SK-MEL-28 = assay: SRB colorimetric assay of cell growth and viability, SK-MEL-28; settings: 48 hours exposure, SRB; for CC50: read-out: LC50 MEL-28
# LoVo = assay: SRB colorimetric assay of cell growth and viability, LoVo; settings: 48 hours exposure; for CC50: read-out: LC50 LOVO
# IGROV-ET = assay: SRB colorimetric assay of cell growth and viability, IGROV-ET; settings: 48 hours exposure, SRB; for CC50: read-out: LC50 IGROV-ET
smiles,measurement,setting,value
"C=C1NC(=O)[C@H](Cc2ccccc2)NC(=O)[C@@H](C(C)C)NC(=O)[C@@H]([C@@H](C)CC)NC(=O)[C@H](NC(=O)[C@H](NC(=O)[C@H](CCCN)NC(=O)[C@H]2CCCN2C(=O)[C@H](NC(=O)[C@@H](NC(=O)[C@@H](NC(=O)[C@H](NC(=O)CCCC(C)C)C(C)C)[C@@H](C)O)C(C)C)C(C)C)[C@@H](C)CC)[C@@H](C)OC(=O)[C@H](C(C)C)NC1=O [Compound 67, [Dha^2]-KF] ({Hexanoyl(5-Me)}-[dV]TV[dV][dP][Orn][d(aIle)][d(aThr)][d(aIle)][dV]F[Dha]V; ester 8-C)",GI50,IGROV-1,0.553 µM
same,LC50 (concentration causing 50% net cell killing),IGROV-1,4.59 µM
same,TGI IGROV,IGROV-1,1.58E−06 Molar
same,TGI LN-caP,LNCaP,4.60E−06 Molar
same,GI50,LNCaP,1.83 µM
same,CC50,LNCaP,≥ 6.83 µM
same,GI50,SK-BR-3,0.32 µM
same,LC50,SK-BR-3,2.21 µM
same,TGI SK-BR-3,SK-BR-3,5.56E−07 Molar
same,GI50,HeLa; SRB,1.15 µM
same,TGI HELA,HeLa; SRB,2.15E−06 Molar
same,CC50,HeLa; SRB,4 µM
same,GI50,DU-145,0.915 µM
same,LC50 (concentration causing 50% net cell kill),DU-145,3.4 µM
same,TGI DU-145,DU-145,1.77E−06 Molar
same,GI50,LoVo-Dox; SRB,0.264 µM
same,TGI LOVO-DOX,LoVo-Dox; SRB,5.61E−06 Molar
same,CC50,LoVo-Dox; SRB,2.47 µM
same,GI50,HeLa-APL; SRB,1.09 µM
same,TGI HELA-APL,HeLa-APL; SRB,2.03E−06 Molar
same,CC50,HeLa-APL; SRB,3.75 µM
same,TGI HT-29,HT-29; SRB,9.63E−07 Molar
same,GI50,HT-29; SRB,0.347 µM
same,CC50,HT-29; SRB,4.17 µM
same,GI50,K-562; SRB,2.92 µM
same,TGI K-562,K-562; SRB,6.83E−06 Molar
same,CC50,K-562; SRB,≥ 6.83 µM
same,GI50,PANC-1; SRB,≥ 6.83 µM
same,TGI PANC-1,PANC-1; SRB,6.83E−06 Molar
same,CC50,PANC-1; SRB,≥ 6.83 µM
same,TGI A-549,A-549; SRB,2.70E−06 Molar
same,GI50,A-549; SRB,1.44 µM
same,CC50,A-549; SRB,5.06 µM
same,GI50,SK-MEL-28,1.13 µM
same,TGI MEL-28,SK-MEL-28,2.25E−06 Molar
same,CC50,SK-MEL-28,4.51 µM
same,GI50,LoVo; SRB,0.173 µM
same,TGI LOVO,LoVo; SRB,3.40E−07 Molar
same,CC50,LoVo; SRB,0.669 µM
same,GI50,IGROV-ET,0.39 µM
same,TGI IGROV-ET,IGROV-ET,1.33E−06 Molar
same,CC50,IGROV-ET,4.53 µM
"C/C=C1\NC(=O)[C@H](CCC2CCCCC2)NC(=O)[C@@H](C(C)C)NC(=O)[C@@H]([C@@H](C)CC)NC(=O)[C@H](NC(=O)[C@H](NC(=O)[C@H](CCCN)NC(=O)[C@H]2CCCN2C(=O)[C@H](NC(=O)[C@@H](NC(=O)[C@@H](NC(=O)[C@H](NC(=O)CCCC(C)C)C(C)C)[C@@H](C)O)C(C)C)C(C)C)[C@@H](C)CC)[C@@H](C)OC(=O)[C@H](C(C)C)NC1=O [Compound 63, 5-MeHex-D-Val-Thr-Val-D-Val-D-Pro-Orn-D-allo-Ile-cyclo[D-allo-Thr-D-alo-Ile-D-Val-hCh-(Z)-Dhb-Val]] ({Hexanoyl(5-Me)}-[dV]TV[dV][dP][Orn][d(aIle)][d(aThr)][d(aIle)][dV][hCha][Dhb]V; ester 8-C)",GI50,IGROV-1,0.128 µM
same,LC50 (concentration causing 50% net cell killing),IGROV-1,2 µM
same,TGI IGROV,IGROV-1,4.29E−07 Molar
same,TGI LN-caP,LNCaP,1.21E−06 Molar
same,GI50,LNCaP,0.336 µM
same,CC50,LNCaP,2.85 µM
same,GI50,SK-BR-3,0.0748 µM
same,LC50,SK-BR-3,0.465 µM
same,TGI SK-BR-3,SK-BR-3,1.86E−07 Molar
same,GI50,HeLa; HELA,0.175 µM
same,TGI HELA,HeLa; HELA,4.99E−07 Molar
same,CC50,HeLa; HELA,2.06 µM
same,GI50,DU-145,0.119 µM
same,LC50 (concentration causing 50% net cell kill),DU-145,1.55 µM
same,TGI DU-145,DU-145,4.25E−07 Molar
same,GI50,LoVo-Dox; LOVO-DOX,0.13 µM
same,TGI LOVO-DOX,LoVo-Dox; LOVO-DOX,2.56E−07 Molar
same,CC50,LoVo-Dox; LOVO-DOX,0.502 µM
same,GI50,HeLa-APL; HELA-APL,0.292 µM
same,TGI HELA-APL,HeLa-APL; HELA-APL,1.09E−06 Molar
same,CC50,HeLa-APL; HELA-APL,3.23 µM
same,TGI HT-29,HT-29; HT-29,3.22E−07 Molar
same,GI50,HT-29; HT-29,0.132 µM
same,CC50,HT-29; HT-29,1.13 µM
same,GI50,K-562; K-562,1.48 µM
same,TGI K-562,K-562; K-562,2.63E−06 Molar
same,CC50,K-562; K-562,4.69 µM
same,GI50,PANC-1; PANC-1,1.05 µM
same,TGI PANC-1,PANC-1; PANC-1,2.10E−06 Molar
same,CC50,PANC-1; PANC-1,4.21 µM
same,TGI A-549,A-549; A-549,1.60E−06 Molar
same,GI50,A-549; A-549,0.728 µM
same,CC50,A-549; A-549,3.48 µM
same,GI50,SK-MEL-28,0.828 µM
same,TGI MEL-28,SK-MEL-28,1.77E−06 Molar
same,CC50,SK-MEL-28,3.79 µM
same,GI50,LoVo; LOVO,0.122 µM
same,TGI LOVO,LoVo; LOVO,2.40E−07 Molar
same,CC50,LoVo; LOVO,0.469 µM
same,GI50,IGROV-ET,0.0761 µM
same,TGI IGROV-ET,IGROV-ET,2.01E−07 Molar
same,CC50,IGROV-ET,0.529 µM
